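Five compound concentrations were applied to cells in 96-well plates for 48 hours; endpoints were derived by simple linear interpolation of the resulting dose-response curve. GI50 is the concentration that inhibits growth by half. TGI: concentration producing complete growth inhibition.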
Tests used:
Assay in all cases: growth of human tumour cells (NCI), 48 h
RXF 393 renal = test system: RXF 393 renal
K-562 leukemia = test system: K-562 leukemia
SK-MEL-2 melanoma = test system: SK-MEL-2 melanoma
CAKI-1 renal = test system: CAKI-1 renal
SF-295 CNS = test system: SF-295 CNS
HCT-15 colon = test system: HCT-15 colon
MOLT-4 leukemia = test system: MOLT-4 leukemia
NCI/ADR-RES ovarian = test system: NCI/ADR-RES ovarian
A549 NSCLC = test system: A549 NSCLC
MDA-MB-231 breast = test system: MDA-MB-231 breast

Row | Compound | TGI (RXF 393 renal) | TGI (K-562 leukemia) | TGI (SK-MEL-2 melanoma) | TGI (CAKI-1 renal) | TGI (SF-295 CNS) | TGI (HCT-15 colon) | TGI (MOLT-4 leukemia) | TGI (NCI/ADR-RES ovarian) | TGI (A549 NSCLC) | TGI (MDA-MB-231 breast) | GI50 (RXF 393 renal) | GI50 (K-562 leukemia) | GI50 (SK-MEL-2 melanoma) | GI50 (CAKI-1 renal) | GI50 (SF-295 CNS) | GI50 (MOLT-4 leukemia) | GI50 (NCI/ADR-RES ovarian) | GI50 (MDA-MB-231 breast) | GI50 (HCT-15 colon) | GI50 (A549 NSCLC)
1 | O=c1oc2cc(O)ccc2c(O)c1C(c1ccccc1)c1c(O)c2ccc(O)cc2oc1=O | > 100 µM | > 100 µM | > 100 µM | > 100 µM | > 100 µM | > 100 µM | > 100 µM | > 100 µM | > 100 µM | > 100 µM |  |  |  |  |  |  |  |  |  | 
2 | O=C1CC2(CCC(O)(c3ccc4ccccc4c3)C(C(=O)c3ccc4ccccc4c3)C2)C(=O)c2ccccc2N1 (centres undefined) | > 100 µM | > 100 µM | > 100 µM | > 100 µM | > 100 µM |  | > 100 µM | > 100 µM | > 100 µM | > 100 µM |  |  |  |  |  |  |  |  |  | 
3 | COc1cnc2c(c1)C(=O)c1c-2n(CCCN2CCOCC2)c(=O)c2cc(Cl)ccc12 | 28 µM | > 100 µM | > 100 µM | > 100 µM | 0.664 µM |  | > 100 µM | > 100 µM |  | > 100 µM | 0.332 µM | 0.525 µM | 30.5 µM | 0.342 µM | 0.239 µM | 0.267 µM | 0.259 µM | > 100 µM |  | 
4 | O=C1CCC(c2ccccc2)=NN1c1nsc2ccccc12 | > 100 µM | > 100 µM | > 100 µM |  |  | > 100 µM | > 100 µM |  | > 100 µM |  |  |  |  |  |  |  |  |  |  | 
5 | Nc1ncc(-c2ccc3ncnc(Nc4ccc(F)c(Cl)c4)c3c2)cn1 | 3.5 µM | > 100 µM | 39.9 µM | 4.02 µM | 11 µM | > 100 µM | 9.33 µM | 46.2 µM | 8.25 µM | 3.8 µM | 0.932 µM | 3.25 µM | 18.2 µM | 0.367 µM | 2.11 µM | 2.24 µM | 3.8 µM | 1.44 µM | 2.54 µM | 1.95 µM
6 | O=C(O)C(Cl)(Cl)Cl | > 100 µM | > 100 µM | > 100 µM | > 100 µM | > 100 µM | > 100 µM | > 100 µM |  | > 100 µM |  |  |  |  |  |  |  |  |  |  | 

— PubChem BioAssay (NCI)
